From patent US12110293B2, “Substituted triazolo quinoxaline derivatives” (GRÜNENTHAL GMBH, priority 2018, dated 2024)

Biological target: T1, glucocorticoid receptor (Homo sapiens, UniProt P04150)
T1 construct: expressed in transfected cells
T1 sequence (P04150 524-758 limits assumed): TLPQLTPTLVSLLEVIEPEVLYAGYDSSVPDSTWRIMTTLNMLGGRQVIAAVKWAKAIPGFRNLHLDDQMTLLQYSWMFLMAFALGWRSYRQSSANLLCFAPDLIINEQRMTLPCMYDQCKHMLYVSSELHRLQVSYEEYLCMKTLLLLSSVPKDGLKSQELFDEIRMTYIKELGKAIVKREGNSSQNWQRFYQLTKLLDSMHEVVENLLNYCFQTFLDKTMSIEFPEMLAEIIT
Assay: Agonistic mode of action on the glucocorticoid receptor (CHO-Gal4/GR luciferase reporter cell line)
Type: cell-based
Settings: range class observed in the agonistic assay or the antagonistic assay (CHO-Gal4/GR reporter cells); table does not say which mode applies per example
Excerpt: Potential selective glucocorticoid receptor modulators of this intervention can be tested for modulation of the activity of the glucocorticoid receptor using cell-based assays. These assays involve a Chinese hamster ovary (CHO) cell line which contains fragments of the glucocorticoid receptor as well as fusion proteins. The glucocorticoid receptor fragments used are capable of binding the ligand (e.g. beclomethasone) to identify molecules that compete for binding with glucocorticoid receptor ligands. In more detail, the glucocorticoid receptor ligand binding domain is 25 fused to the DNA binding domain (DBD) of the transcriptionfactor GAL4 (GAL4 DBD-GR) and is stably integrated into a CHO cell line containing a GAL4-UAS-Luciferase reporter construct. […] After cell lysis the luminescence that is produced by luciferase after addition of the substrate is detected and EC50 or IC50 values can be calculated. Engagement of molecules which induce gene expression via glucocortocoid receptor binding to the DNA leads to expression of the luciferase gene under the control of the fusion protein GAL4 DBD-GR and therefore to a dose-dependent increase of the luminescence signal. Binding of molecules which repress beclomethasone-induced gene expression of the luciferase gene under the control of the fusion protein GAL4 DBD-GR leads to a dose-dependent reduction of the luminescence signal.
Biological Assays Agonistic Mode of Action on the Glucocorticoid Receptor
The reporter cell line CHO-Gal4/GR consisted of a Chinese hamster ovary (CHO) cell line (Leibniz Institute DSMZ—German Collection of Microorganisms and Cell CuItures GmbH: ACC-110) containing a firefly luciferase gene under the control of the GR ligand binding domain fused to the DNA binding domain (DBD) of GAL4 (GAL4 DBD-GR) stably integrated into CHO cells. This cell line was established by stable transfection of CHO cells with a GAL4-UAS-Luciferase reporter construct. In a subsequent step the ligand binding domain of the GR cloned into pIRES2-EGFP-GAL4 containing the DNA binding domain of GAL4 from pFA-AT2 was transfected. This fusion construct activated firefly luciferase expression under the control of a multimerized GAL4 upstream activation sequence (UAS). The signal of the emitted luminescence was recorded by the FLIPR^TETRA. This allowed for specific detection of ligand-induced activation of the GR and therefore for the identification of compounds with agonistic properties. The GAL4/UAS reporter was premixed with a vector that constitutively expressed Renilla luciferase, which served as an internal positive control for transfection efficiency.
The complete culture medium for the assay was: • DMEM F-12 (1:1) MIXTURE (LONZA cat. N°: BE04-687F/U1) 500 mL • 5 mL of 100 mM Sodium Pyruvate (LONZA cat. N°: BE12-115E) • 25 mL of 7.5% Sodium Bicarbonate (LONZA cat. N° BE17-613E) • 6.5 mL of 1 M Hepes (LONZA cat. N°: BE17-737E) • 5 mL of 100× Penicillin/Streptomycin (LONZA cat. N° DE17-602E) • 50 mL of Fetal Bovine Serum (Euroclone cat. N° ECS 0180L) • 0.25 mL of 10 mg/mL Puromycin (InvivoGen cat.: ant-pr-1) • 0.5 mL of 100 mg/mL Zeocin (InvivoGen cat.: ant-zn-1)
Cryo-preserved CHO-Gal4/GR cells were suspended in complete medium and 5000 cells/25 μl/well were seeded into the wells of 384-well polystyrene assay plates (Thermo Scientific, cat. #4332) and cultured at 37° C., 5% CO2 and 95% humidity. After 24 hours growth medium was carefully removed and replaced by 30 μl Opti-MEM (GIBCO, cat. #31985062) as assay buffer. To test the compounds an 8-point half-log compound dilution curve was generated in 100% DMSO starting from a 2 mM stock and compounds were then diluted 1:50 in Opti-MEM. 10 μl of compounds were then added to the wells containing 30 μl Opti-MEM resulting in a final assay concentration range from 10 μM to 0.003 μM in 0.5% DMSO. Compounds were tested at 8 concentrations in quadruplicate data points.

Compound | IC50 or EC50 (agonist or antagonist mode not specified) [nM]
CC(=O)n1ccc2c(-c3c(F)cc4c(c3F)-n3c(C)nnc3C(C)(C)N4)cccc21 [Example 20, 1-(4-(7,9-difluoro-1,4,4-trimethyl-4,5-dihydro-[1,2,4]triazolo[4,3-a]quinoxalin-8-yl)-1H-indol-1-yl)ethanone] | 100 to 1000
Cc1nnc2n1-c1c(cc(F)c(-c3cccc4c3ccn4S(=O)(=O)C(C)C)c1F)NC2(C)C [Example 200, 7,9-Difluoro-8-[1-(isopropylsulfonyl)-1H-indol-4-yl]-1,4,4-trimethyl-5H-[1,2,4]triazolo[4,3-a]quinoxaline] | 1000 to 15000
CCS(=O)(=O)n1ccc2c(-c3c(F)cc4c(c3C(F)(F)F)-n3c(C)nnc3C(C)(C)N4)cccc21 [Example 455, 8-[1-(Ethylsulfonyl)-1H-indol-4-yl]-7-fluoro-1,4,4-trimethyl-9-(trifluoromethyl)-5H-[1,2,4]triazolo[4,3-a]quinoxaline] | < 100
Cc1nnc2n1-c1c(cc(F)c(-c3c(F)ccc4c3ccn4S(C)(=O)=O)c1F)NC2(C)C [Example 224, 7,9-Difluoro-8-(5-fluoro-1-methylsulfonyl-1H-indol-4-yl)-1,4,4-trimethyl-5H-[1,2,4]triazolo[4,3-a]quinoxaline] | 100 to 1000
COCCn1ccc2c(-c3c(Cl)cc4c(c3F)-n3c(C)nnc3C(C)(C)N4)cc(F)cc21 [Example 404, 7-Chloro-9-fluoro-8-[6-fluoro-1-(2-methoxy-ethyl)-1H-indol-4-yl]-1,4,4-trimethyl-5H-[1,2,4]triazolo[4,3-a]quinoxaline] | 100 to 1000
Cc1cc2c(c(C)c1-c1cc(F)cc3c1cnn3S(C)(=O)=O)-n1c(C)nnc1C(C)(C)N2 [Example 373, 8-(6-Fluoro-1-methylsulfonyl-1H-indazol-4-yl)-1,4,4,7,9-pentamethyl-5H-[1,2,4]triazolo[4,3-a]quinoxaline] | 100 to 1000
Cc1c[nH]c2c(-c3c(OC(F)F)cc4c(c3F)-n3c(C)nnc3C(C)(C)N4)cc(F)cc12 [Example 267, 7-(Difluoro-methoxy)-9-fluoro-8-(5-fluoro-3-methyl-1H-indol-7-yl)-1,4,4-trimethyl-5H-[1,2,4]triazolo[4,3-a]quinoxaline] | 100 to 1000
Cc1cc(-c2c(F)cc3c(c2F)-n2c(C)nnc2C(C)(C)N3)c2ccn(S(C)(=O)=O)c2c1 [Example 492, 7,9-Difluoro-1,4,4-trimethyl-8-(6-methyl-1-methylsulfonyl-1H-indol-4-yl)-5H-[1,2,4]triazolo [4,3-a]quinoxaline] | < 100
Cc1nnc2n1-c1c(cc(F)c(-c3cc(C(F)(F)F)cc4[nH]ccc34)c1F)NC2(C)C [Example 207, 7,9-Difluoro-1,4,4-trimethyl-8-[6-(trifluoromethyl)-1H-indol-4-yl]-5H-[1,2,4]triazolo[4,3-a]quinoxaline] | 100 to 1000
Cc1nnc2n1-c1c(cc(F)c(-c3cc(F)cc4c3cnn4CC(F)F)c1C(F)F)NC2(C)C [Example 472, 8-[1-(2,2-Difluoro-ethyl)-6-fluoro-1H-indazol-4-yl]-9-(difluoro-methyl)-7-fluoro-1,4,4-trimethyl-5H-[1,2,4]triazolo[4,3-a]quinoxaline] | < 100
Cc1c(-c2cc(C(F)(F)F)cc3[nH]ccc23)c(F)cc2c1-n1c(C)nnc1C(C)(C)N2 [Example 470, 7-Fluoro-1,4,4,9-tetramethyl-8-[6-(trifluoromethyl)-1H-indol-4-yl]-5H-[1,2,4]triazolo[4,3-a]quinoxaline] | 100 to 1000

Continued, values first:

IC50 or EC50 (agonist or antagonist mode not specified) [nM] | Compound
100 to 1000 | COCCn1ccc2c(-c3c(Cl)cc4c(c3C)-n3c(C)nnc3C(C)(C)N4)cccc21 [Example 338, 7-Chloro-8-[1-(2-methoxy-ethyl)-1H-indol-4-yl]-1,4,4,9-tetramethyl-5H-[1,2,4]triazolo[4,3-a]quinoxaline]
100 to 1000 | CC#Cc1c[nH]c2c(-c3c(F)cc4c(c3F)-n3c(CC)nnc3C(C)(C)N4)cc(F)cc12 [Example 16, 1-ethyl-7,9-difluoro-8-(5-fluoro-3-(prop-1-yn-1-yl)-1H-indol-7-yl)-4,4-dimethyl-4,5-dihydro-[1,2,4]triazolo[4,3-a]quinoxaline]
1000 to 15000 | COc1cc2c(c(F)c1-c1cccc3[nH]ccc13)-n1c(C)nnc1C(C)(C)N2 [Example 256, 9-Fluoro-8-(1H-indol-4-yl)-7-methoxy-1,4,4-trimethyl-5H-[1,2,4]triazolo[4,3-a]quinoxaline]
< 100 | Cc1c(-c2cc(F)cc3c2ccn3S(C)(=O)=O)c(OC(F)(F)F)cc2c1-n1c(C)nnc1C(C)(C)N2 [Example 403, 8-(6-Fluoro-1-methylsulfonyl-1H-indol-4-yl)-1,4,4,9-tetramethyl-7-(trifluoromethyloxy)-5H-[1,2,4]triazolo[4,3-a]quinoxaline]
100 to 1000 | COc1cc2c(c(F)c1-c1cccc3c(C)c[nH]c13)-n1c(C)nnc1C(C)(C)N2 [Example 266, 9-Fluoro-7-methoxy-1,4,4-trimethyl-8-(3-methyl-1H-indol-7-yl)-5H-[1,2,4]triazolo[4,3-a]quinoxaline]
100 to 1000 | CCc1nnc2n1-c1c(cc(F)c(-c3cccc4cc[nH]c34)c1F)NC2(C)C [Example 11, 1-ethyl-7,9-difluoro-8-(1H-indol-7-yl)-4,4-dimethyl-4,5-dihydro-[1,2,4]triazolo[4,3-a]quinoxaline]
100 to 1000 | Cc1c[nH]c2c(-c3c(C(F)F)cc4c(c3F)-n3c(C)nnc3C(C)(C)N4)cccc12 [Example 306, 7-(Difluoro-methyl)-9-fluoro-1,4,4-trimethyl-8-(3-methyl-1H-indol-7-yl)-5H-[1,2,4]triazolo[4,3-a]quinoxaline]
< 100 | CCc1c(-c2cc(F)cc3c(C)c[nH]c23)c(F)cc2c1-n1c(C)nnc1C(C)(C)N2 [Example 47, 9-Ethyl-7-fluoro-8-(5-fluoro-3-methyl-1H-indol-7-yl)-1,4,4-trimethyl-5H-[1,2,4]triazolo[4,3-a]quinoxaline]
100 to 1000 | Cc1nnc2n1-c1c(cc(F)c(-c3ccc(C#N)c4[nH]ccc34)c1C(F)(F)F)NC2(C)C [Example 531, 4-[7-Fluoro-1,4,4-trimethyl-9-(trifluoromethyl)-5H-[1,2,4]triazolo[4,3-a]quinoxalin-8-yl]-1H-indole-7-carbonitrile]
< 100 | Cc1nnc2n1-c1c(cc(F)c(-c3cc(F)cc4c3ccn4S(C)(=O)=O)c1C(F)F)NC2(C)C [Example 390, 9-(Difluoro-methyl)-7-fluoro-8-(6-fluoro-1-methylsulfonyl-1H-indol-4-yl)-1,4,4-trimethyl-5H-[1,2,4]triazolo[4,3-a]quinoxaline]
1000 to 15000 | Cc1nnc2n1-c1c(cc(F)c(-c3cccc4c3cnn4S(=O)(=O)C3CC3)c1F)NC2(C)C [Example 234, 8-[1-(Cyclopropylsulfonyl)-1H-indazol-4-yl]-7,9-difluoro-1,4,4-trimethyl-5H-[1,2,4]triazolo[4,3-a]quinoxaline]
